PMC4785615, “Evidence that phospholipase C is involved in the antitumour action of NSC768313, a new thieno[2,3-b]pyridine derivative” (Cancer Cell International, 2016)
Each block holds one compound with its values, some of them ahead of it.

Columns and labels:
[1] = test system: MDA-MB-231 breast cancer cells; experiment: DNA damage by γH2AX (flow cytometry, immunoblot); assay type: cell-based, human; settings: MDA-MB-231, 1 μM, 24 h; for Proportion of cells with high γ-H2AX phosphorylation: basal level 1 %
Description: (§1) As described in detail previously, cells (10^6 cells per well) were grown in 6 well plates and incubated with inhibitors for the indicated time. Cells were harvested, washed and resuspended in 1 ml of blocking buffer (1 % FCS/PBS), and incubated with antibody to γ-H2AX (phosphorylated Ser139) (Millipore, USA) in blocking buffer (1:500 dilution) at room temperature for 2 h. Cells were washed, incubated with goat anti-mouse Alex 488 Fab fragment secondary antibody (Invitrogen, New Zealand) (1:400 in blocking buffer for 1 h, at room temperature; dark), washed and resuspended in 1 ml of blocking buffer containing RNase (1 μg/ml) and propidium iodide (PI) (10 μg/ml) for 30 min at room temperature. Cells were analysed in a Becton–Dickinson LSRII and profiles were analysed with ModFit LT 3 software.
As described in detail previously cells were grown to log-phase, washed twice with ice-cold PBS, and lysed in SDS lysis buffer according to the manufacturer’s protocol (Cell Signalling Technology, Danvers, MA, USA). Protein concentration was quantified using the BCA protein assay reagent bicinchoninic acid (Sigma, New Zealand). Cell lysates containing 25 μg of protein were separated by SDS-PAGE and transferred to PVDF membranes (Millipore). Membranes were immunoblotted with antibodies against to γ-H2AX (phosphorylated Ser139) (Millipore, USA), and actin (Millipore), using SuperSignalWest Pico (Thermo Scientific, Waltham,MA, USA) chemiluminescence reagents. Antibody reactivity was visualized using the chemiluminescence detection system by Fujifilm Las-3000.

[2] = test system: T47D; experiment: Cell proliferation assay (3H-thymidine incorporation, 3 days); assay type: cell-based, human; settings: 3 days treatment
Description: (§2) Culture conditions have been described in detail previously; human breast cancer cell lines MCF-7, T47D, MDA-MB-468, MDA-MB-231, human epithelial carcinoma cell line A431 and human colon cancer cell line HCT116 were purchased from the American Type Culture Collection (ATCC). Cells were grown in α-MEM containing 5 % fetal calf serum, insulin/transferrin/selenium supplement, added according to the manufacturer’s instructions (Roche), as well as penicillin/streptomycin (100 U/ml and 100 μg/ml, respectively).
(§3) As described in detail previously, cell proliferation was measured using a thymidine incorporation assay by seeding 3000 cells in each well using 96 well plates with varying concentrations of inhibitors for 3 days. Experiments were performed in triplicate with a minimum of two experimental repeats. Briefly, ^3H-thymidine (0.04 µCi) was added to each well and incubated for 5 h, after which the cells were gathered onto glass fibre filters using an automated TomTec harvester. Filters were incubated with Betaplate Scint and thymidine incorporation determined with Trilux/Betaplate counter showing the percentage of cells incorporated with ^3H-thymidine into the DNA helix.

[3] = test system: breast cancer cells; set-up: method as in doi:10.1039/C3MD00290J; settings: earlier flow cytometry; cited from earlier work
[4] = test system: MDA-MB-231 breast cancer cells; experiment: Microtubule imaging (anti-tubulin and Hoechst staining); assay type: cell-based, human; settings: MDA-MB-231, 16 h; for Microtubule arrangement: FITC anti-tubulin staining
Description: Cells were grown on a glass slide with and without inhibitors, fixed by 4 % paraformaldehyde, permeabilised by 0.5 % Triton X-PBS and incubated with 5 % BSA/PBS containing FITC-labelled anti-tubulin antibody. Microtubule arrangement was monitored by fluorescence staining of microtubules using anti-tubulin and analysed by fluorescent microscopy using Floid imaging station (460× magnification). Nucleus was stained with 2 μg/ml Hoechst stain (Life Technology) for 10 min at room temperature. Hoechst stain emits blue fluorescence when bound to double strand DNA.

[5] = Aqueous solubility; assay type: physicochemical
[6] = test system: HCT116; experiment: Combination growth inhibition with cytotoxic drugs (Bliss model); assay type: cell-based, human; settings: HCT116, derivative 3 50 nM plus paclitaxel
Description: as §3
(§4) As described previously for everolimus and other inhibitors, we employed the Bliss additivism model to classify the drug combinations as additive, synergistic or antagonistic. A theoretical curve was calculated for combined inhibition using the equation Ebliss = (EA + EB) − (EA × EB), where EA and EB are the fractional inhibitions obtained by drug A alone and drug B alone at specific concentrations. Ebliss is the fractional inhibition that would be expected if the effects of the two drugs were additive. The difference (Bliss) in the experimentally measured fractional inhibition (Expt) and Ebliss are defined as synergism […], additive (Expt = Ebliss), and antagonism […]. Bliss = 0 would indicate the combination is additive; Bliss > 0 would indicate the percentage increase in maximal inhibition above additivity (synergy); and Bliss < 0 would indicate the percentage decrease in maximal inhibition below additivity (antagonism). The data were analysed using a one-way ANOVA coupled with multiple comparisons versus treatment control applying the Holm-Sidak method correction, where p < 0.05 denotes a statistically significant difference.

[7] = test system: MDA-MB-231; experiment: as above; assay type: cell-based, human
Description: as §3, §4

[8] = test system: MCF7; experiment: Cell proliferation assay (3H-thymidine incorporation, 3 days); assay type: cell-based; settings: Homo sapiens, 72 h, 3 days treatment, read-out: IC50 (50 % inhibition of growth)
Description: as §2, §3

[9] = test system: MDA-MB-231; experiment: as above; assay type: cell-based; settings: Homo sapiens, 72 h; MDA-MB-231, thymidine incorporation, 3 days treatment; read-out: IC50 (50 % inhibition of growth)
Description: as §2, §3

[10] = test system: MDA-MB-468; experiment: as above; assay type: cell-based; settings: Homo sapiens, 72 h; MDA-MB-468, thymidine incorporation, 3 days treatment; read-out: IC50 (50 % inhibition of growth)
Description: as §2, §3

[11] = test system: MDA-MB-231 breast cancer cells; experiment: Cell cycle distribution by flow cytometry; assay type: cell-based, human; settings: MDA-MB-231, 1 μM, 24 h
Description: as §1

[12] = test system: A431 cells; experiment: Calcium flux assay (EGF-induced, Fluo-4); assay type: cell-based, human; settings: pre-treatment at 25 and 50 μM, EGF 400 ng/ml
Description: A431 cells were plated onto 96 wells until confluent. Cells were loaded with 5 µM Fluo-4 acetoxymethyl ester with 0.003 % pluronic acid and 2.5 mM Probenecid (Molecular Probes) for 30 min at 37 °C, then washed with buffer and incubated for another 30 min. Epidermal growth factor (EGF) (400 ng/ml) was used as an activator. EGF alone or with derivative 3 were added to A431 cells to determine the inhibitory activity on calcium flux of derivative 3, and compared with buffer (negative control) and 1 µg/ml ionomycin (positive control). Fluorescence signal was recorded from the bottom of the plate at 1 s intervals (3 wells per/s) using an EnSpire 2300 Multimode Plate Reader (Perkin-Elmer) at excitation wavelength of 494 nm and emission wavelength of 506 nm (25 °C, 3 mm measurement height, 50 flashes). Baseline fluorescence was recorded for 10 s, after which buffer alone, EGF alone or with drug, was added and fluorescence was captured for a further 45 s. Next, ionomycin was added and fluorescence was recorded for another 45 s. Three independent experiments were performed.

[13] = Mouse plasma pharmacokinetics; assay type: in vivo; settings: ip, male CD-1 mice, 10 mg/Kg intraperitoneal
Description: (§5) Male CD-1 mice were obtained from Vernon Jansen Unit (University of Auckland) and housed in cages with a 12-hour light/dark cycle and received sterilized food and water ad libitum. Studies and procedures were conducted with prior approval of the Ethics Committee of the University of Auckland (AEC approval number 1190). Derivative 3 was prepared in 20 % HP-β CD as a fine yellow suspension, and administered (at 10 mg/Kg) as intraperitoneal bolus injection. Blood samples were collected via a terminal cardiac bleeding (n = 3 mice/time) at 0.167, 0.5, 1, 2 and 6 h post dose. Blood was collected in ice cold K2-EDTA tubes and kept on ice. All samples were centrifuged at 6500 rpm for 5 min at room temperature, obtained plasma were stored at −80 °C until analysed by LC–MS/MS.
Briefly, plasma samples were assayed for derivative 3 using liquid chromatography-tandem mass spectrometry (LC–MS/MS) method. Briefly, derivative 3 was spiked in the drug mouse plasma to obtain a concentration 0.003, 0.03, 0.3, 3, 10 and 30 µM to construct a calibration curve. Derivative 1 (a structural analogue of 3) was used as an internal standard in LC–MS/MS assay at a concentration of 0.5 μM added to acetonitrile. Drug was extracted from plasma using direct protein precipitation with ice cold acetonitrile (1:4 v/v) and quantified by peak area ratio of 3 versus 1 using a calibration curve prepared with derivative 3 as outlined above. LC–MS/MS used was Agilent 6410b with multimode ion source operated in atmospheric pressure chemical ionization (APCI) positive mode attached to an Agilent 1200 series HPLC system. LC–MS/MS used an Agilent Zorbax SB-C18 column (2.1 × 50 mm, 5 µM, USA) operated at 35 °C, at a flow rate 0.5 mL/min with a gradient consisting of 0.01 % formic acid in MilliQ water (Millipore, USA) and 0.01 % formic acid in 80 % acetonitrile-20 % MilliQ water. The MS1 and MS2 were operated at unit resolution in the multiple reaction monitoring (MRM) mode, monitoring the transition of the protonated molecular ions at m/z 368 to the product ions at m/z 245 for derivative 3 and monitoring the transition of the protonated molecular ions at m/z 372 to the product ions at m/z 245 for derivative 1 (internal standard). […] The lower limit of quantification for derivative 3 in plasma was 0.003 μM.
Mean mouse plasma-time data for derivative 3 was analysed with non-compartmental method using Phoenix WinNonlin 6.2 (Pharsight Corporation, Mountain View, CA) as shown in Table 1.

[14] = Tolerability in mice after intraperitoneal injection; assay type: in vivo; settings: 10 mg/Kg intraperitoneal injection, 20 % HP-β CD
Description: as §5
Derivative 3 was chosen for a small pharmacokinetic study.

SMILES: CC[C@@]1(O)C(=O)OCc2c1cc1n(c2=O)Cc2cc3ccccc3nc2-1 [camptothecin, reference compound]
Proportion of cells with high γ-H2AX phosphorylation [1]: 69%

IC50 (50 % inhibition of growth) [2]: not reached
SMILES: Nc1c(C(=O)Nc2cccc3ccccc23)sc2nc3c(cc12)C(=O)CCC3 [derivative 5]

SMILES: Nc1c(C(=O)Nc2cccc(Cl)c2)sc2nc3c(cc12)C(=O)CCC3 [derivative 1]
Cell cycle effect [3]: caused G2/M arrest

SMILES: CC(=O)O[C@H]1C(=O)[C@@]2(C)[C@H]([C@H](OC(=O)c3ccccc3)[C@]3(O)C[C@H](OC(=O)[C@H](O)[C@@H](NC(=O)c4ccccc4)c4ccccc4)C(C)=C1C3(C)C)[C@]1(OC(C)=O)CO[C@@H]1C[C@@H]2O [paclitaxel, reference compound]
Microtubule arrangement [4]: shortened and bundling of microtubules

SMILES: COc1cccc(NC(=O)c2sc3nc4c(cc3c2N)C(=O)CCC4)c1 [derivative 3]
Aqueous solubility [5]: poor
Drug interaction with paclitaxel (Bliss) [6]: Synergism
Drug interaction with camptothecin (Bliss) ([7]; MDA-MB-231, derivative 3 50 nM plus camptothecin): only additive effects
Drug interaction with doxorubicin (Bliss) ([7]; MDA-MB-231, derivative 3 50 nM plus doxorubicin): only additive effects
Drug interaction with paclitaxel (Bliss) ([7]; MDA-MB-231, derivative 3 50 nM plus paclitaxel): synergistic effect
IC50 [8]: < 100 nM
IC50 [9]: < 100 nM
IC50 [10]: < 100 nM
Cell cycle effect [11]: induce G2/M phase cell cycle arrest
Effect on increase in intracellular calcium levels induced by EGF [12]: no effect
Cell morphology [4]: membrane blebbing
Microtubule arrangement [4]: No microtubule bundles were observed
Nuclear phenotype ([4]; Hoechst staining): abnormal nuclear phenotype and possessed multinuclear cells
half-life ([13]; male, CD-1, mouse, 10 mg/kg, read-out: t1/2 (elimination half-life)): > 240 min
k el ([13]; mouse, 20 % HP-β CD suspension, read-out: Ke (elimination rate constant) (converted)): 4.72e-06 s⁻¹
AUC(0-inf) ([13]; mouse, extrapolated to infinity): 0.19 µM·h
Tmax ([13]; mouse, post injection, read-out: Time of maximal plasma concentration (converted)): 30 min
Cmax ([13]; mouse, read-out: Cmax (maximum concentration in plasma)): 87 nM
AUC(0-t) ([13]; mouse, up to 6 h, read-out: AUC0–6 h): 0.13 µM·h
DNA damage (γH2AX) [1]: did not initiate DNA damage
Proportion of cells with high γ-H2AX phosphorylation [1]: 4%
Tolerability [14]: well tolerated with no acute reaction observed
